# Experimental data as given in paper PMC6836573, “Mitochondria-targeting fluorescent molecules for high efficiency cancer growth inhibition and imaging” (Chemical Science, 2019).
# “Also recorded” adds a separate entry of the source.
# Legend:
# [1] = Cytotoxicity assay (direct cell counting), NIH-3T3; assay type: cell-based; conditions: mouse; NIH-3T3 normal cells; 3 days incubation, viable cells counted
# Procedure: (§1) Cell culture, imaging, and cytotoxicity assay
# (§2) RPMI-1640 medium. NIH/3T3 was cultured in DMEM medium. A549 was cultured in F-12K medium. T24 were cultured in McCoy's 5A medium. All culture mediums were supplemented with 10% fetal bovine serum. The cells were incubated at 37 °C in an atmosphere containing 5% CO 2. […]
# (§3) Cytotoxicity assay. All test cell lines were incubated in 96-well plates overnight at a density of 3000 cells/well. The culture medium was replaced with 200 μL of culture medium, into which the testing compound was dispersed at various concentrations (1.95 - 500 μM). After incubating for 3 days, the viable cell numbers were checked and directly counted under microscopy (10X). A minimum of 1mm×1mm area was counted from each of at least three widely separated regions of cell culture. The cell proliferation rate was calculated by the following formula: cell proliferation rate (%) = (average cell number of sample wells / average cell number of control wells) ×100%.
# (§4) The intact culture medium was evaluated as a control. […]
# [2] = Photostability under continuous excitation; assay type: physicochemical; conditions: water, 10 μM, continuously excited for 50 min
# Procedure: bandpass filter (MF559-34, Thorlabs, Newton, New Jersey, USA) was used to excite Mitotracker
# Red. All the dyes were dissolved in water at a 10 µM concentration in 700 µL micro quartz cuvettes (10 mm, Sigma-Aldrich, St. Louis, MO, USA). They were continuously excited for 50 mins.
# During this period, the fluorescence intensity was measured every 5 mins at 525 nm (F16s, Rhodamine 6G, Mitotracker Green) or 600 nm (Mitotracker Red). Relative fluorescence intensity change was monitored over time. […]
# bladder cancer T24 cell = experiment: Cytotoxicity assay (direct cell counting), T24; assay type: cell-based; conditions: for IC50: T24 cells, 3 days incubation, viable cells counted
# Procedure: as §1, §2, §3, §4
# NSCLC H838 cell = experiment: Cytotoxicity assay (direct cell counting), H838; assay type: cell-based; conditions: H838 cells, 3 days incubation, viable cells counted
# Procedure: as §1, §2, §3, §4
# All animal experiments were performed in compliance with the Guidelines for the Care and Use of Research Animals as established by the Stanford University Animal Studies Committee. Female athymic nude mice (nu/nu) from 4−6 weeks old were obtained from Charles River Laboratories (Boston, MA, USA) and kept under sterile conditions. 5 × 106 human lung adenocarcinoma
# [3] = Relative fluorescence quantum yield; assay type: physicochemical; conditions: EtOH, relative to rhodamine 6G, excited at 425 nm
# Procedure: Quantum yield. The fluorescence quantum yields of F16s were determined according to the […]
# Where Φ is the quantum yield, F is the integrated area under the corrected emission spectrum, and A is the absorbance at the excitation wavelength; the subscripts x and s refer to F16s and the standard, respectively. Rhodamine 6G (ΦF = 95%) in ethanol was used as the standard. All F16s and Rhodamine 6G were dissolved in ethanol in 5 different concentrations with the absorbance lower than 0.1 at 425nm. The corresponding 5 different fluorescences of F16s and Rhodamine 6G were excited at 425 nm and the emission spectra from 450 nm to 650 nm were obtained for the following integrated area measurement. All data were analyzed using Origin Pro 9.0 software (OriginLab, Northampton, Massachusetts, USA) to get the F16s final quantum yield. […]
# [4] = Absorption and emission spectra in water; assay type: physicochemical; conditions: 31 μM
# [5] = parameters: method as in PMID 19072739, PMID 10656430, PMID 12154051; conditions: study halted at Phase II; cited from earlier work
# [6] = parameters: method as in earlier work; conditions: in ethanol, used as the standard; ref 2 of the supplement; cited from earlier work
Quantum Yield [3] [%],Structure (SMILES),IC50 at 3 days [1] [µM],"IC50 (bladder cancer T24 cell; Homo sapiens, T-24, 72 h) [µM]","IC50 (NSCLC H838 cell; Homo sapiens, NCI-H838, 72 h) [µM]",further results
13.6,Cn1cc(/C=C/c2cc[n+](C)cc2)c2cc(F)ccc21 [1-MeFF16],104,21.7,19.1,photostability ([2]; listed as 1): bleached quite easily; also recorded: dramatically decreased photostability; Quantum Yield ([3]; listed as 1): around 12%
8.6,C[n+]1ccc(/C=C/c2c(Cl)[nH]c3ccccc23)cc1 [2-ClF16],13.8,54.7,25.7,photostability ([2]; listed as 8): bleached quite easily; also recorded: poor photostability; Quantum Yield ([3]; listed as 8): under 10%
18.1,Cc1ccc2[nH]c(C)c(/C=C/c3cc[n+](C)cc3)c2c1 [2-Me-5-MeF16],161,68.8,17.3,photostability ([2]; listed as 9): bleached quite easily; also recorded: poor photostability; absorption peak [4]: about 450 nm; Quantum Yield ([3]; listed as 9): around 20%
5.8,C[n+]1ccc(/C=C/c2c(-c3ccccc3)[nH]c3ccccc23)cc1 [2-PhF16],0.326,4.02,3.74,absorption peak [4]: about 450 nm; Quantum Yield ([3]; listed as 5): under 10%
49.1,C[n+]1ccc(/C=C/c2c[nH]c3ccc(Br)cc23)cc1 [5-BrF16],11.6,1.84,1.2,
9.7,C[n+]1ccc(/C=C/c2c[nH]c3ccc(C#N)cc23)cc1 [5-CNF16],,316,20,Quantum Yield ([3]; listed as 6): under 10%
4.5,C[n+]1ccc(/C=C/c2c[nH]c3c(F)cc(I)cc23)cc1 [5-I-7-FF16],14.2,3.83,1.29,Quantum Yield ([3]; listed as 10): under 10%
,"C[n+]1ccc(/C=C/c2c[nH]c3ccccc23)cc1 [F16, reference compound]",,,,IC50 (bladder cancer T24 cell): 18.8 µM; IC50 (NSCLC H838 cell): 46.6 µM
18.5,C[n+]1ccc(/C=C/c2c[nH]c3ccc(F)cc23)cc1 [FF16],75.1,6.26,3.63,selectivity indices (bladder cancer T24 cell; 3T3 versus T24 and H838): > 10; Quantum Yield ([3]; listed as 7): around 20%
,CCn1c(=O)/c(=C2\Sc3ccccc3N2C)s/c1=C\c1cccc[n+]1CC.[Cl-] [MKT-077],,,,anti-tumor effect in clinical trial [5]: limited anti-tumor effect; nephrotoxicity in clinical trial [5]: mild nephrotoxicity
1.24,C[n+]1ccc(/C=C/c2c[nH]c3ccc([N+](=O)[O-])cc23)cc1 [NO2F16],86,73.8,4.7,Quantum Yield ([3]; listed as 11): under 10%
12.2,C[n+]1ccc(/C=C/c2c[nH]c3c2ccc2ccccc23)cc1 [PhF16],0.28,1.02,1.5,Quantum Yield ([3]; listed as 2): around 12%
,CC/N=c1\cc2oc3cc(NCC)c(C)cc3c(-c3ccccc3C(=O)OCC)c-2cc1C [rhodamine 6G],,,,Quantum Yield of the standard [6]: 95%
